These results are taken from patent US20260130404A1, “SWEETNESS AND TASTE IMPROVEMENT OF NON-SUCROSE SWEETENERS WITH D-SUGARS OR L-SUGARS” (The Coca-Cola Company, priority 2022, published 2026).

For test [1], the system named is panelists. The experiment in a line: Sensory panel paired comparison of lemon-lime beverages with Reb M. To be noted: 1% in a lemon-lime matrix containing 475 ppm rebaudioside M. The test is classed as in vivo. The procedure:
(§1) The ingredients were dissolved in filtered water to constitute a syrup, then the final beverage was made by weighing the appropriate syrup amount and adding carbonated water using a ratio of 1-part syrup+5.4 parts carbonated water to target a carbonation of 3.8 volumes of CO2. Final beverages were filled in 300 ml glass bottles and served cold (4° C.). A sensory panel was provided with the D-glucose (@1%) containing beverage of Table 1 and the control shown therein. The beverages were evaluated blindly by six or seven panelists. Samples were coded and randomly presented to the panelists. Panelists were instructed to eat an unsalted cracker and rinse the mouth with water before and in between the samples. For each sample, panelists were instructed to taste, then write down their evaluation comments in paired comparison test between control and prototypes. Panelists ranked higher the sample that had higher sweet intensity, fast sweet onset, more sugar like mouthfeel, less sweet linger, less bitter and overall best tasting. […] Samples were coded and randomly presented to the panelists. Panelists were instructed to eat an unsalted cracker and rinse the mouth with water before and in between the samples. […]

Test [2] deals with panelists. The experiment in a line: Sensory panel paired comparison of lemon-lime beverages with Siamenoside I. The test is classed as in vivo. Conditions: 2% in a lemon-lime matrix containing 600 ppm Siamenoside I. Here is the method:
as §1, with “Table 4” for “Table 1”

Test [3] has as its system human sense of taste. Conditions: cited from earlier work.
A further test deals with taste panelists. Conditions: background statement; cited from earlier work.
In test [4] the test system is human sense of taste. Conditions: cited from earlier work. This is another data set of the same source.
Where [5] appears, read: lowest known concentration perceivable as sweet, ppm equivalent of the mM value.
The mark [6] stands for this setting: lowest known concentration perceivable by the human sense of taste as sweet.

Where two headings read alike, the source gives them in different places.

Regarding `O=C[C@@H](O)[C@H](O)[C@@H](O)[C@@H](O)CO` [L-glucose], in the test with panelists [1], the “taste modulation (sensory testing, FIG. 1 and 2)” value was “effective taste modulator”. Further, in the test on panelists [2], the “taste modulation (sensory testing, FIG. 3 and 4)” value is recorded as “effective taste modulator”. The figures for the “sweetness recognition threshold concentration” value in the test with human sense of taste [3] (setting [5]) and with human sense of taste [3] (setting [6]) were “about 5765 ppm” and “about 32±7 mM”, respectively.
Take `C=C1C[C@@]23CC[C@H]4[C@@](C)(CCC[C@@]4(C)C(=O)O[C@@H]4O[C@H](CO)[C@@H](O)[C@H](O[C@@H]5O[C@H](CO)[C@@H](O)[C@H](O)[C@H]5O)[C@H]4O[C@@H]4O[C@H](CO)[C@@H](O)[C@H](O)[C@H]4O)[C@@H]2CC[C@]1(O[C@@H]1O[C@H](CO)[C@@H](O)[C@H](O[C@@H]2O[C@H](CO)[C@@H](O)[C@H](O)[C@H]2O)[C@H]1O[C@@H]1O[C@H](CO)[C@@H](O)[C@H](O)[C@H]1O)C3` [rebaudioside M]: the maximal sucrose equivalence result with taste panelists was “greater than 10%”.
In the case of `C=C1C[C@@]23CC[C@H]4[C@@](C)(CCC[C@@]4(C)C(=O)O[C@@H]4O[C@H](CO)[C@@H](O)[C@H](O)[C@H]4O)[C@@H]2CC[C@]1(O[C@@H]1O[C@H](CO)[C@@H](O)[C@H](O[C@@H]2O[C@H](CO)[C@@H](O)[C@H](O)[C@H]2O)[C@H]1O[C@@H]1O[C@H](CO)[C@@H](O)[C@H](O)[C@H]1O)C3` [rebaudioside A], the maximal sucrose equivalence in the test on taste panelists was ≤ 10%.
As to `O=C[C@H](O)[C@@H](O)[C@H](O)[C@H](O)CO` [D-glucose], the “taste modulation (sensory testing, FIG. 1 and 2)” value in the test on panelists [1] is “effective taste modulator”. In addition, the “taste modulation (sensory testing, FIG. 3 and 4)” value in the test with panelists [2] is on record as “effective taste modulator”. Further, the “sweetness recognition threshold concentration” value is “about 7386 ppm” in the test with human sense of taste [3] (setting [5]) and “about 41±6 mM” in the test with human sense of taste [3] (setting [6]). Further, the detection threshold concentration entry is “about 13 mM” in the test on human sense of taste [4] (lowest known concentration perceivable by the human sense of taste) and “about 2342 ppm” with human sense of taste [4] (lowest known concentration perceivable, ppm equivalent of the mM value).
